# Laboratory results: patent US12053506B2, “Romo1-derived antimicrobial peptides and variants thereof” (priority 2019, dated 2024)
# No end group written: not given here.
# Legend:
# [1] = Toxicity in vivo after intravenous injection; design: species or system mouse (C57BL/6); conditions: 100 mg/kg intravenous
# Procedure: At this time, the maximum volume of the injection dose was 150 μl.
# [2] = test system: Staphylococcus aureus (ATCC 29213); type: cell-based
# In short: (§1)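 Bacteria grown in 3% TSB at 37° C, diluted in 10 mM sodium phosphate/1% TSB to 1×10^5 CFU/ml in wells, exposed to peptides (0–300 μg/ml) for 1 h at 37° C. Mixtures plated on TS agar for 18 h at 37° C; MBC is the lowest concentration giving no colonies.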
# [3] = test system: Pseudomonas aeruginosa (ATCC 27853); type: cell-based
# In short: as §1
# [4] = test system: Multidrug-resistant K. pneumoniae; conditions: Multidrug-resistant
# Procedure: (§2) The minimum bactericidal concentration assay was the same as the method used in Example 1.
# (§3) Specifically, each type of bacteria was cultured in 3% (w/v) TSB (Tryptic Soy Broth) liquid medium at 37° C. and 200 rpm for 4 hours, and then further cultured under the same conditions for 3 hours to a concentration of 5×10^6 CFU/ml. Strain solutions were prepared by diluting each of the […] of 2×10^5 CFU/ml.
# (§4) Then, the KU-5878 peptide at varying concentrations (0 μg/ml to 300 μg/ml) was dispensed into each well of a 96-well microplate, and 100 μl (1×10^5 CFU/ml) of each of the prepared strain solutions was added thereto, mixed therewith, and allowed to react with the peptide in an incubator at 37° C. for 1 hour.
# (§5) In addition, 10 μl of each reaction solution of the peptide and the strain was plated on the TS agar plate at a constant size, and incubated in an incubator at 37° C. for 18 hours, and then colony formation on the plate was checked.
# (§6) Meanwhile, the multidrug-resistant Pseudomonas aeruginosa, multidrug-resistant Acinetobacter and multidrug-resistant Klebsiella in Table 2 below were bacteria isolated from patients at Korea University Anam Hospital. […] Then, these bacteria were used in the experiment.
# [5] = test system: Multidrug-resistant A. baumannii; conditions: Multidrug-resistant
# Procedure: as §2, §3, §4, §5, §6
sequence,measurement,setting,value
KTMMQSGGTFGTFMAIGMGIR [KU-5878],survival of mice after injection,[1]; 12 days,all survived
same,effect on the weight of the mice,"[1]; weights at 24-hour intervals for 12 days, FIG. 7",no effect on the weight of the mice
same,MBC (μg/ml) value against Staphylococcus aureus,[2]; ATCC 29213,100 µg/mL
same,MBC value (μg/ml) against Staphylococcus aureus,"[2]; ATCC 29213, 1 h",100 µg/mL
same,MBC Staphylococcus aureus,"[2]; Tables 11-15, no unit printed",100 µg/mL
same,MBC (μg/ml) value against Pseudomonas aeruginosa,[3]; ATCC 27853,100 µg/mL
same,MBC value (μg/ml) against Pseudomonas aeruginosa,"[3]; ATCC 27853, 1 h",100 µg/mL
same,MBC Pseudomonas aeruginosa,"[3]; Tables 11-15, no unit printed",100 µg/mL
same,"MBC value (μg/ml), Multidrug-resistant K. pneumoniae",[4],100 µg/mL
same,"MBC value (μg/ml), Multidrug-resistant A. baumannii",[5],110 µg/mL
